Data taken from ChEMBL document CHEMBL1152066, “7,10-Bis(2-mercapto-2-methyl)propyl-7,10-diazapalmitic acid: a novel, N2S2 ligand for technetium-99m” (Bioorg Med Chem Lett, 1996).
“And” between values parts separate entries of the source, which are not always exact repeats. Equal entries are not always repeated.

Key:
Type in all cases: ADME, organism-based
Conditions in all cases: in vivo
[1] = test system: Rattus norvegicus; assay: Distribution of radioactivity in heart of fasted rats following concomitant intravenous administration of [99mTc]-7. value expressed as % injected dose / organ
[2] = test system: Rattus norvegicus; assay: Distribution of radioactivity in kidney of fasted rats following concomitant intravenous administration of [99mTc]7. value expressed as % injected dose / organ
[3] = test system: Rattus norvegicus; assay: Distribution of radioactivity in lung of fasted rats following concomitant intravenous administration of [99mTc]7. value expressed as % injected dose / organ
[4] = test system: Rattus norvegicus; assay: Distribution of radioactivity in spleen of fasted rats following concomitant intravenous administration of [99mTc]-7. value expressed as % injected dose / organ
[5] = test system: Rattus norvegicus; assay: (§1) Distribution of radioactivity in stomach of fasted rats following concomitant intravenous administration of [99mTc]7. value expressed as % injected dose / organ
[6] = test system: Rattus norvegicus; assay: as §1; remark: listed apart in the source

| Injected dose/organ [1] | Injected dose/organ [2] | Injected dose/organ [3] | Injected dose/organ [4] | Injected dose/organ [5] [%] | Injected dose/organ [6] | SMILES |
| --- | --- | --- | --- | --- | --- | --- |
| 1.86% and 2.94% | 2.07% and 0.71% | 1.25% and 0.77% | 0.54% and 0.57% | 0.42 | 0.27% | O=C(O)CCCCCCCCCCCCCCc1ccc([125I])cc1 |
| 0.22% and 0.56% | 3.42% and 1.18% | 1.19% and 0.73% | 0.7% and 0.78% | – | 0.27% and 0.18% | CCCCCCN(CCN(CCCCCC(=O)O)CC(C)(C)S)CC(C)(C)S |
